{
  "source": "patent US10821142B2",
  "about": "“Cancer treatment and diagnosis” (priority 2015, dated 2020)",
  "key": {"IRF3/NF-κB translocation": {"test_system": "IRF3/NF-κB translocation", "test": "Immunofluorescence of IRF3/NF-κB translocation in FHC treated with DMH/AOM", "format": "cell-based, human", "conditions": "3 mM for 48 hours", "experimental": "FIGS. 8A-8C show fluorescence microscopy analysis (related to FIG. 1) of DAPI staining in WT and SKO MEFs treated with 3 mM of AOM of 3 mM of DMH (FIG. 8A) and anti-dsDNA staining and the ration of cytoplasm to nucleus (FIG. 8B) in Human normal colon epithelial cells (FHC) treated with 3 mM of AOM or 3 mM of DMH for 48 hours. (FIG. 8C) Immunofluorescence microscopy analysis of FHC treated with AOM and DMH sane as FIG. 8A for 48 hours using p65 or IRF3 antibody. Images shown at original magnification, 160×.\nTo start determining the mechanisms underlining the cause of DMH/AOM-induced STING activity, MEF or FHC cells were treated with these drugs and observed by two different approaches, DAPI staining and immunofluorescence (IF) using anti-dsDNA antibody, the leakage of DNA into the cytosol (FIGS. 8A and 8B). Cytosolic DNA activates STING and stimulates STING/TBK1 trafficking via autophagy to endosomal regions harboring the transcription factors IRF3 and NF-κB, which triggers cytokine production. […]\nCells were cultured and treated in their appropriate media on Lab-Tek II chamber slides. […] Immunostaining was performed with rabbit-anti-STING polyclonal followed by fluorescence conjugated secondary antibodies (FITC-goat-anti-rabbit) (Invitrogen). […]"}, "[1]": {"test_system": "STING-dependent genes in murine embryonic fibroblasts", "test": "Gene array and qPCR of WT and SKO MEFs treated with AOM or DMH", "format": "cell-based, mouse", "conditions": "AOM 0.14 mM for 8 hours", "experimental": "(§1) FIGS. 1A-1E show activation of STING-dependent genes by azoxymethane (AOM) (FIG. 1A) Gene array analysis of Wild type (WT) and STING deficient (SKO) mouse embryonic fibroblasts (MEFs) treated with AOM at 0.14 mM for 8 hours (Left) and 1,2-dimethylhydrazine (DMH) at 1 mM for 8 hours (Right). Highest variable genes are shown. Rows represent individual genes; columns represent individual samples. Grayscale indicates transcript levels below, equal to, or above the mean. Scale represents the intensity of gene expression (log 2 scale ranges between −2.4 and 2.4). (FIG. 1B) qPCR analysis of Cxcl10 and Ifit3 in MEFs treated with AOM and DMH same as FIG. 1A. (FIG. 1C) qPCR analysis of Cxcl10 in Human epithelial cell (FHC) treated with AOM and DMH at 1 mM for 24 hours. (FIG. 1D) FHC cells were transfected with STING or control siRNA for 72 hours followed by AOM and DMH treatment same as FIG. 1C, and were then subjected to Cxcl0 mRNA expression (Left). STING expression level after siRNA treatment was determined by qPCR (Right). […] (FIG. 1E) STING Immunohistochemistry staining of the colon tissue from WT and SKO mice (Left) and Human. All images were shown at original magnification, 200×.\nTowards these objectives, the AOM/DSS model, as described above, was utilized and analyzed the effects of AOM and precursor DMH upon STING signaling. Principally, wild type (WT) or STING-deficient (SKO) murine embryonic fibroblasts (MEF) were treated in vitro with DMH or metabolite AOM for 8 hours and microarray analysis performed to analyze the consequences to gene expression. […] The observed STING-dependent gene expression was confirmed following RT-PCR analysis of select mRNA such as Cxcl10 and IFIT3 (FIG. 1B). […] Thus, the DNA damaging agent DMH/AOM can invoke STING-dependent signaling.\nTotal RNA was isolated from cells or tissues with RNeasy Mini kit (74104, Qiagen, Valencia, Calif.). RNA quality was analyzed by Bionalyzer RNA 6000 Nano (Agilent Technologies, Santa Clara Calif.). […]"}, "type I IFN production": {"test_system": "type I IFN production", "test": "IFNB induction (qPCR) in normal and colon cancer cells treated with AOM or DMH", "format": "cell-based, human", "conditions": "15 mM for 20 hours", "experimental": "FIG. 22. Normal and colon cancer cells were treated with AOM or DMH at 15 mM for 20 hours. IFNB induction was analyzed by qPCR. STING, IRF3 and NF-kB translocation was examined: +, translocation; −, no translocation.\nThe question arises as to why the STING-signaling pathway may be inhibited in colon adenocarcinoma. Recently, it was shown that STING-deficient cells and mice are sensitive to AOM-induced DNA damage. In this situation, the STING pathway may play a role in the DNA-damage response pathway, to induce the production of cytokines which facilitate tissue repair or damaged cell removal (Chatzinikolaou et al., 2014; Kidane et al., 2014; Lord and Ashworth, 2012). As such, innate immune induction of CA cells in response to DNA damaging agents was examined. […] Thus, the inhibition of the STING pathway may enable DNA damaged cells, harboring mutations, to escape part of the DNA damage response and the immune surveillance machinery to progress into a tumorigenic state."}, "[2]": {"test_system": "STING-dependent genes in FHC cells", "test": "qPCR of Cxcl10 in human colon epithelial cells (FHC) treated with AOM", "format": "cell-based", "conditions": "FHC treated with RNAi to STING", "experimental": "as §1\nTowards these objectives, the AOM/DSS model, as described above, was utilized and analyzed the effects of AOM and precursor DMH upon STING signaling. […]"}, "colon": {"test_system": "colon", "conditions": "mice; single injection of AOM followed by DSS via drinking water; cited from earlier work"}},
  "data": [
    {"compound": "CN=[N+](C)[O-]", "note": "[AOM, Azoxymethane]", "values": [
      {"measurement": "translocation of IRF3/NF-κB", "setting": "IRF3/NF-κB translocation", "value": "could instigate the translocation of IRF3/NF-κB"},
      {"measurement": "mRNA production of innate immune related genes", "setting": "[1]; MEFs lacking STING (SKO)", "value": "marked decrease in the production of the same genes"},
      {"measurement": "mRNA production of innate immune related genes", "setting": "[1]; WT MEFs", "value": "activated mRNA production of a wide array of innate immune related genes"},
      {"measurement": "production of type I IFN", "setting": "type I IFN production; CA cells with defective STING activated IRF3 or NF-kB activity", "value": "unable to generate type I IFN"},
      {"measurement": "production of type I IFN", "setting": "type I IFN production; normal colon epithelial (CCD841) and LS123", "value": "able to induce the production of type I IFN"},
      {"measurement": "production of Cxcl10", "setting": "[2]", "value": "similarly reduced"},
      {"measurement": "colon cancer induced", "setting": "colon", "value": "~100", "unit": "%"}
    ]}
  ]
}
